Test results taken from patent US20090298834A1, “4-(AMINOMETHYL)CYCLOHEXANAMINE DERIVATIVES AS CALCIUM CHANNEL BLOCKERS” (priority 2008, published 2009).

Experiments:
[1] = target: T1, human α1G T-type channels (Homo sapiens, UniProt O43497); experiment: T-type calcium channel block, whole cell patch clamp (α1G); format: cell-based; settings: HEK cells stably expressing human α1G; mainly non-inactivated protocol; values above 10 μM represented as 10 μM, values below 0.30 μM represented as 0.30 μM
T1 construct: expressed in transfected cells; host or cells: HEK 293
T1 sequence (O43497 whole entry): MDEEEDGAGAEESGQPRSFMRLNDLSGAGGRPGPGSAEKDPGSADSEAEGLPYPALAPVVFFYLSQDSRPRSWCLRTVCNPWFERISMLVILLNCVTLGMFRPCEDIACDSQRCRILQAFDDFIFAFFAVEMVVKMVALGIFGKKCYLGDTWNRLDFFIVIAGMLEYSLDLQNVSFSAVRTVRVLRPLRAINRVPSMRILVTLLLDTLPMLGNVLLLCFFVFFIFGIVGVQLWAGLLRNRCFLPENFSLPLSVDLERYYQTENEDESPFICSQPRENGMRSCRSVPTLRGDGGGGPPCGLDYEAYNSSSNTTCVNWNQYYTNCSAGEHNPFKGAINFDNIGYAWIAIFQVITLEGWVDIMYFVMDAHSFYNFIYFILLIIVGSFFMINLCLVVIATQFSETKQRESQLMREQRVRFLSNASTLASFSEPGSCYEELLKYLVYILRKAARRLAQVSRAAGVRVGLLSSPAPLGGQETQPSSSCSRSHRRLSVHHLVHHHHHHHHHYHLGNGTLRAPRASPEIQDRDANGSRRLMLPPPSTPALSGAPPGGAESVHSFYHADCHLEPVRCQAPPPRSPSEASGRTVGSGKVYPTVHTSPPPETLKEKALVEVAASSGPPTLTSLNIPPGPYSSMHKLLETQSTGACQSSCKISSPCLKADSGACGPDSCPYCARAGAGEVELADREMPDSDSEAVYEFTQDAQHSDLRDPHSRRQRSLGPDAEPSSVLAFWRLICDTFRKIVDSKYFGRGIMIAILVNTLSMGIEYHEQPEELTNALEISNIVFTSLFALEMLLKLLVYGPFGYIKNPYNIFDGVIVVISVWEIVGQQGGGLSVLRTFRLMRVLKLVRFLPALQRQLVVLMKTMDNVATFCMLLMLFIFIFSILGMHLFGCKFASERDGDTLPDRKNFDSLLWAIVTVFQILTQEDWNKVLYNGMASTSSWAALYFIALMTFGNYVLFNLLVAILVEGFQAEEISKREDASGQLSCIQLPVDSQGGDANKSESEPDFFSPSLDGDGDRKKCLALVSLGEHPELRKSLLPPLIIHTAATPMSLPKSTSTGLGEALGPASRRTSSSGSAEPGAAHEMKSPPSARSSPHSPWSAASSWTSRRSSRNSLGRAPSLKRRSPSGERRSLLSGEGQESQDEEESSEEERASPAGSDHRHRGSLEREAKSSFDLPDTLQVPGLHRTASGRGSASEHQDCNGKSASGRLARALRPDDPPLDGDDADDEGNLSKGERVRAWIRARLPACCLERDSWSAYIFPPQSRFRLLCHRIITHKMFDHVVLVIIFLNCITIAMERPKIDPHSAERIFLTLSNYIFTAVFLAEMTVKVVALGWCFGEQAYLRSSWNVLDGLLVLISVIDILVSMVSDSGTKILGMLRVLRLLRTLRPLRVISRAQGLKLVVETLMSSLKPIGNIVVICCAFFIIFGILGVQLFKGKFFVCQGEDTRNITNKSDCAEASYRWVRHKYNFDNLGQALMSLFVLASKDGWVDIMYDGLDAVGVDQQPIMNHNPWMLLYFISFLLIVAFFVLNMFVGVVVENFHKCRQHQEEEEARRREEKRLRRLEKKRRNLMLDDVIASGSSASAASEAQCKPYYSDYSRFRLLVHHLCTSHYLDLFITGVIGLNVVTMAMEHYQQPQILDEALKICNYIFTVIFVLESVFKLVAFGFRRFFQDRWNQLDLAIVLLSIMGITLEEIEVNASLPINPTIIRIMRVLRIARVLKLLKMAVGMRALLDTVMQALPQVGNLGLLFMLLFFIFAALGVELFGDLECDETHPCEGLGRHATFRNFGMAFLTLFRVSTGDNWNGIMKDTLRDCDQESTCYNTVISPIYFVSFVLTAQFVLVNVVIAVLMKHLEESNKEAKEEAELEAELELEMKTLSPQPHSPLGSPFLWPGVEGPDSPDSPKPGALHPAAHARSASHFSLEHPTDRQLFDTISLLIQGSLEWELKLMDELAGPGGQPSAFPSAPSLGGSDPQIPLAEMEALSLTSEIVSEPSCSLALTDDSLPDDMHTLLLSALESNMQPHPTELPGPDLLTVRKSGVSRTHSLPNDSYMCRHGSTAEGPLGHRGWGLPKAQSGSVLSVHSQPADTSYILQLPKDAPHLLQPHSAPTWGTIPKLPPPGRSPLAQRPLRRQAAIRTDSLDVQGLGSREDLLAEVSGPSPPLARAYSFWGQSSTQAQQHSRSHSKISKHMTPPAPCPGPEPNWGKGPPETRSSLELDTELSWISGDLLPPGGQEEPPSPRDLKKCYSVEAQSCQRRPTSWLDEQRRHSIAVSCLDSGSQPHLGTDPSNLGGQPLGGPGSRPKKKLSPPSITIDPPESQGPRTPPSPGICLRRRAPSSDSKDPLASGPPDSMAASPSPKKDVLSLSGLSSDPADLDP
Procedure, shortened: (§1)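 Resting block was measured mainly with the non-inactivated protocol: holding potential −110 mV, 1 s step to −100 mV, then a 50 ms test pulse at −40 mV. Recordings used stably transfected human α1G or α1H HEK293 lines, with compounds perfused in external solution containing 0.1-0.01% DMSO. IC50 values (μM) above 10 μM are reported as 10 μM.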

[2] = target: T2, human α1H T-type channels (Homo sapiens, UniProt O95180); experiment: T-type calcium channel block, whole cell patch clamp (α1H); format: cell-based; settings: HEK cells stably expressing human α1H; mainly non-inactivated protocol; values above 10 μM represented as 10 μM
T2 construct: expressed in transfected cells; host or cells: HEK 293
T2 sequence (O95180 whole entry): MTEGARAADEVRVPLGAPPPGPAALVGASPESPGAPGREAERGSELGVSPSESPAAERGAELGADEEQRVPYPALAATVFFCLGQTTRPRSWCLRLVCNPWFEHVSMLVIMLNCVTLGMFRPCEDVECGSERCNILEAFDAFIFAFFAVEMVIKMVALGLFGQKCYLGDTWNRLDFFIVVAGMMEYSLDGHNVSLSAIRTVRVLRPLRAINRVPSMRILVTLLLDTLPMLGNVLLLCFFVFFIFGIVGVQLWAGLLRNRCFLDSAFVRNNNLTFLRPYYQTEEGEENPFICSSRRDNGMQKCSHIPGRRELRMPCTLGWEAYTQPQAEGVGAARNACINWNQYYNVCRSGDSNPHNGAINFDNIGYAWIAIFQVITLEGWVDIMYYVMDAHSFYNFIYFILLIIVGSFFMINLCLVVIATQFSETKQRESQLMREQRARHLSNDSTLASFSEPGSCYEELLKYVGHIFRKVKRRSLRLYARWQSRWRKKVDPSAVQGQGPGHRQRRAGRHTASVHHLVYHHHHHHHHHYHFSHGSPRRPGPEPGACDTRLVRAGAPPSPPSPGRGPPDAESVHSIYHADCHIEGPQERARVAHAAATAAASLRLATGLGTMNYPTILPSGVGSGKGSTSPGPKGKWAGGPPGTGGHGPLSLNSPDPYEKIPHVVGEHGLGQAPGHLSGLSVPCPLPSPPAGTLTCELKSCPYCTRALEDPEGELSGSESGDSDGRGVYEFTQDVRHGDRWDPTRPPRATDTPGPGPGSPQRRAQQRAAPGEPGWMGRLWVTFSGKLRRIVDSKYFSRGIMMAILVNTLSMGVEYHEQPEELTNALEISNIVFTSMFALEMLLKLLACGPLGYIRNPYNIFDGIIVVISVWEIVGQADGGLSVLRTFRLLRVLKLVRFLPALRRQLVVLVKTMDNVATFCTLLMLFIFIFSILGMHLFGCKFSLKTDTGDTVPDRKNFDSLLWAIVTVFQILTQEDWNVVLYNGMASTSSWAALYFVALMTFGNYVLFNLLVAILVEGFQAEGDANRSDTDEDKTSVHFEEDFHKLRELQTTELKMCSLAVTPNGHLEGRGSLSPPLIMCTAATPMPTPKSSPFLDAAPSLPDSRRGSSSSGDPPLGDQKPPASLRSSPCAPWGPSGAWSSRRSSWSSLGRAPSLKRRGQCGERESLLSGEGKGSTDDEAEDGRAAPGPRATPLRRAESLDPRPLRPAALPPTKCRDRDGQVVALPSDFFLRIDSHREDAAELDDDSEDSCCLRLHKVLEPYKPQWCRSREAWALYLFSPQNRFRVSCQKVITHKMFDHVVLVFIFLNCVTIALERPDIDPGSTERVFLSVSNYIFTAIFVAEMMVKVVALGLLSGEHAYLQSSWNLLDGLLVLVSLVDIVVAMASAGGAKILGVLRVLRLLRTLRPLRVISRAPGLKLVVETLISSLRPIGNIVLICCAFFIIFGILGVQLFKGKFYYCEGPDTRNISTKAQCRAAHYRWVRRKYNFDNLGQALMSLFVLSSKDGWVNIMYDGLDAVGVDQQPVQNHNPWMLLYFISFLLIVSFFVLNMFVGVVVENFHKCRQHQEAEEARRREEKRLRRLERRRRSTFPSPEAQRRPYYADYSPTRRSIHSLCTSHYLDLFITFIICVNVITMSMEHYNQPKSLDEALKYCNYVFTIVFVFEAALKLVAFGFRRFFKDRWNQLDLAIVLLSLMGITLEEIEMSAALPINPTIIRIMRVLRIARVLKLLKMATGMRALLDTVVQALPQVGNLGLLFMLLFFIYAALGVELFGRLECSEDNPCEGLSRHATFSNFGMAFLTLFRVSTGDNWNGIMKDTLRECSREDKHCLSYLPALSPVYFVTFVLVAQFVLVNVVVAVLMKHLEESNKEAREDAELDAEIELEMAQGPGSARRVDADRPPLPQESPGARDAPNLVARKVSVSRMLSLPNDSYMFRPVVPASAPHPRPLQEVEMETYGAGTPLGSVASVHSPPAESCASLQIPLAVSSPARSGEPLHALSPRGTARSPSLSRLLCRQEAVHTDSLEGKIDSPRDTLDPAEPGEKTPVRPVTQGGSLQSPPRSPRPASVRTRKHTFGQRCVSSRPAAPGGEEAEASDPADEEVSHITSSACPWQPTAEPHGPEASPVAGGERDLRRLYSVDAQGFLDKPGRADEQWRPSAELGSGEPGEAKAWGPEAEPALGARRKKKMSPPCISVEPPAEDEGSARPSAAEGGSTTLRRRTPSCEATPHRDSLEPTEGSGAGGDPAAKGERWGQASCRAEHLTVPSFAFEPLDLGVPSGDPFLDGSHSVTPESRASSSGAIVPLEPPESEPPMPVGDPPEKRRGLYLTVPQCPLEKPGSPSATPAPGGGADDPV
Procedure, shortened: as §1

| IC50 [1] | IC50 [2] | SMILES |
| --- | --- | --- |
| 840 nM | 3.62 µM | N[C@H]1CCCC[C@H]1C(=O)N[C@H]1CC[C@H](CC(=O)Nc2cc(C(F)(F)F)cc(C(F)(F)F)c2)CC1 [Compound 122, (1R,2S)-2-amino-N-(trans-4-(2-(3,5-bis(trifluoromethyl)phenylamino)-2-oxoethyl)cyclohexyl)cyclohexanecarboxamide] |
| ≤ 300 nM | 2.95 µM | O=C(C[C@H]1CC[C@H](NC(=O)[C@@H]2C[C@@H](c3ccccc3)CN2)CC1)Nc1cc(C(F)(F)F)cc(C(F)(F)F)c1 [Compound 123, (2S,4S)-N-(trans-4-(2-(3,5-bis(trifluoromethyl)phenylamino)-2-oxoethyl)cyclohexyl)-4-phenylpyrrolidine-2-carboxamide] |
| 830 nM | ≥ 10 µM | NC1(C(=O)N[C@H]2CC[C@H](CC(=O)Nc3cc(C(F)(F)F)cc(C(F)(F)F)c3)CC2)CCCC1 [Compound 124, 1-amino-N-(trans-4-(2-(3,5-bis(trifluoromethyl)phenylamino)-2-oxoethyl)cyclohexyl)cyclopentanecarboxamide] |
| 940 nM | 2.43 µM | O=C(NC[C@H]1CC[C@@H](NC(=O)[C@@H]2C[C@@H](c3ccccc3)CN2)CC1)c1cc(C(F)(F)F)cc(C(F)(F)F)c1 [Compound 125, (2S,4S)-N-(cis-4-((3,5-bis(trifluoromethyl)benzamido)methyl)cyclohexyl)-4-phenylpyrrolidine-2-carboxamide] |
| 1100 nM | 4.93 µM | O=C(NC[C@H]1CC[C@@H](NC(=O)[C@@H]2CC[C@H](c3ccccc3)N2)CC1)c1cc(C(F)(F)F)cc(C(F)(F)F)c1 [Compound 127, (2S,5R)-N-(cis-4-((3,5-bis(trifluoromethyl)benzamido)methyl)cyclohexyl)-5-phenylpyrrolidine-2-carboxamide] |
| 1110 nM | 5.65 µM | O=C(NC[C@H]1CC[C@H](NC(=O)[C@@H]2CC[C@H](c3ccccc3)N2)CC1)c1cc(C(F)(F)F)cc(C(F)(F)F)c1 [Compound 135, (2S,5R)-N-(trans-4-((3,5-bis(trifluoromethyl)benzamido)methyl)cyclohexyl)-5-phenylpyrrolidine-2-carboxamide] |
| 700 nM | 7.85 µM | O=C(NC[C@H]1CC[C@H](NC(=O)[C@H]2CC[C@@H](c3ccccc3)N2)CC1)c1cc(C(F)(F)F)cc(C(F)(F)F)c1 [Compound 137, (2R,5S)-N-(trans-4-((3,5-bis(trifluoromethyl)benzamido)methyl)cyclohexyl)-5-phenylpyrrolidine-2-carboxamide] |
| 1070 nM | 7.06 µM | O=C(NC[C@H]1CC[C@@H](NC(=O)[C@H]2CC[C@@H](c3ccccc3)N2)CC1)c1cc(C(F)(F)F)cc(C(F)(F)F)c1 [Compound 139, (2R,5S)-N-(cis-4-((3,5-bis(trifluoromethyl)benzamido)methyl)cyclohexyl)-5-phenylpyrrolidine-2-carboxamide] |
| 1900 nM | 9.94 µM | O=C(C[C@H]1CC[C@@H](NC(=O)[C@@H]2CCCN2)CC1)Nc1cc(C(F)(F)F)cc(C(F)(F)F)c1 [Compound 143, (S)-N-(cis-4-(2-(3,5-bis(trifluoromethyl)phenylamino)-2-oxoethyl)cyclohexyl)pyrrolidine-2-carboxamide] |
| 2790 nM | 7.87 µM | O=C(C[C@H]1CC[C@@H](NC(=O)[C@H]2CCCN2)CC1)Nc1cc(C(F)(F)F)cc(C(F)(F)F)c1 [Compound 146, (R)-N-(cis-4-(2-(3,5-bis(trifluoromethyl)phenylamino)-2-oxoethyl)cyclohexyl)pyrrolidine-2-carboxamide] |
| ≤ 300 nM | 0.524 µM | CC(C)(C)C(O)CN[C@H]1CC[C@@H](CC(=O)Nc2cc(C(F)(F)F)cc(C(F)(F)F)c2)CC1 (stereo partly drawn) [Compound 150, N-(3,5-bis(trifluoromethyl)phenyl)-2-(cis-4-(2-hydroxy-3,3-dimethylbutylamino)cyclohexyl)acetamide] |
| 480 nM | ≥ 10 µM | Cc1ccc(-c2csc(NC(=O)C[C@H]3CC[C@H](NCC(O)(C(F)(F)F)C(F)(F)F)CC3)n2)cc1 [Compound 151, N-(4-p-tolylthiazol-2-yl)-2-(trans-4-(3,3,3-trifluoro-2-hydroxy-2-(trifluoromethyl)propylamino)cyclohexyl)acetamide] |
| ≤ 300 nM | ≥ 10 µM | Cc1ccc(-c2csc(NC(=O)C[C@H]3CC[C@@H](NCC(O)(C(F)(F)F)C(F)(F)F)CC3)n2)cc1 [Compound 152, N-(4-p-tolylthiazol-2-yl)-2-(cis-4-(3,3,3-trifluoro-2-hydroxy-2-(trifluoromethyl)propylamino)cyclohexyl)acetamide] |
| 1180 nM | 4.01 µM | CC(C)(C)C1CN([C@H]2CC[C@H](CNC(=O)c3cc(C(F)(F)F)cc(C(F)(F)F)c3)CC2)C(=O)O1 (stereo partly drawn) [Compound 153, N-((trans-4-(5-tert-butyl-2-oxooxazolidin-3-yl)cyclohexyl)methyl)-3,5-bis(trifluoromethyl)benzamide] |
| 2920 nM | 1.32 µM | CC(C)(C)NC(=O)CN[C@H]1CC[C@@H](CNC(=O)c2cccc(Cl)c2)CC1 [Compound 179, N-(((1s,4s)-4-(2-(tert-butylamino)-2-oxoethylamino)cyclohexyl)methyl)-3-chlorobenzamide] |
| 3650 nM | 0.33 µM | COc1cc(OC)cc(C(=O)NC[C@H]2CC[C@@H](NCC(=O)NC(C)(C)C)CC2)c1 [Compound 181, N-(((1s,4s)-4-(2-(tert-butylamino)-2-oxoethylamino)cyclohexyl)methyl)-3,5-dimethoxybenzamide] |
| 2370 nM | 3.42 µM | CC(C)(C)NC(=O)CN[C@H]1CC[C@@H](CNC(=O)c2cccc(C(F)(F)F)c2)CC1 [Compound 182, N-(((1s,4s)-4-(2-(tert-butylamino)-2-oxoethylamino)cyclohexyl)methyl)-3-(trifluoromethyl)benzamide] |
| 2240 nM | 0.82 µM | CC(C)(C)NC(=O)CN[C@H]1CC[C@@H](CNC(=O)c2cccc(Br)c2)CC1 [Compound 183, 3-bromo-N-(((1s,4s)-4-(2-(tert-butylamino)-2-oxoethylamino)cyclohexyl)methyl)benzamide] |
| 790 nM | 0.33 µM | CC(C)(C)NC(=O)CN[C@H]1CC[C@@H](CNC(=O)c2cccc(OC(F)(F)F)c2)CC1 [Compound 185, N-(((1s,4s)-4-(2-(tert-butylamino)-2-oxoethylamino)cyclohexyl)methyl)-3-(trifluoromethoxy)benzamide] |
| 1180 nM | 0.26 µM | CC(C)(C)NC(=O)CN[C@H]1CC[C@@H](CNC(=O)c2cc(F)cc(Cl)c2)CC1 [Compound 186, N-(((1s,4s)-4-(2-(tert-butylamino)-2-oxoethylamino)cyclohexyl)methyl)-3-chloro-5-fluorobenzamide] |

| SMILES | IC50 [1] | IC50 [2] |
| --- | --- | --- |
| O=C(C[C@H]1CC[C@H](NC(=O)C2(c3ccccc3)CCNCC2)CC1)Nc1cc(C(F)(F)F)cc(C(F)(F)F)c1 [Compound 121, (S)-N-(trans-4-(2-(3,5-bis(trifluoromethyl)phenylamino)-2-oxoethyl)cyclohexyl)-4-phenylpiperidine-4-carboxamide] | 610 nM | ≥ 10 µM |
| Cc1ccc(-c2csc(NC(=O)C[C@H]3CC[C@@H](NC(=O)C4(c5ccccc5)CCNCC4)CC3)n2)cc1 [Compound 132, N-(cis-4-(2-oxo-2-(4-p-tolylthiazol-2-ylamino)ethyl)cyclohexyl)-4-phenylpiperidine-4-carboxamide] | 1090 nM | ≥ 10 µM |
